Converted amounts (≈) assume the structure as drawn. “Also recorded” adds a separate entry of the source. Read-outs that look alike come from different tables or passages of the source.
Experiments:
[1] = target: T1, KCa2.3 (Homo sapiens, UniProt Q9UGI6); experiment: Potassium channels patch-clamp (QPatch), KCa2.3; type: cell-based
T1 construct: expressed in transfected cells; host or cells: COS7
Protocol: The effects of Group 4 compounds on related potassium channels were evaluated by patch-clamp using a QPatch HTX automated electrophysiology platform (Sophion, Denmark). The giga-seal and whole-cell requirements for the automated electrophysiology were the following: minimum seal resistance=0.1 GO, holding potential=−80 mV, holding pressure=−20 mbar; and positioning pressure=−70 mbar.

[2] = Plasma protein binding assay (equilibrium dialysis), mouse plasma; type: in vitro ADME; details: pH 7.4
Protocol: Human and mouse plasma (150 μL) containing test compound (3 μM, final concentration) and sodium phosphate buffer (150 μL, 100 mM, pH 7.4) were added to the equilibrium dialysis device and equilibrated at 37° C. for 4.5 h with constant shaking. After equilibration, 10 μL of the plasma was taken out from the first half of the well and mixed with 50 μL of blank buffer, and later quenched with 200 μL of 0.05% formic acid in ACN containing 100 ng/mL of Loperamide, Phenacetin & Tolbutamide as internal standards. Similarly, 50 μL of […] was taken from the second half of the well and mixed with 10 μL of blank […] before quenching. […] All samples were centrifuged at 14,000 rpm for 5 min at 4° C. Warfarin and naltrexone were used as positive controls. Supernatant of all samples were analyzed by LC-MS/MS.

[3] = tested on: panel of other molecular targets
Protocol: The results are expressed as a percent inhibition of control specific binding [100-(measured specific binding/control specific binding*100)]. The IC50 values and Hill coefficients (nH) were determined by non-linear regression analysis of the competition curves generated with mean replicate values using Hill equation curve fitting performed with software developed at Cerep (Hill software) and validated by comparison with data generated by the commercial software SigmaPlot® 4.0.

[4] = Plasma and liver studies after 14 days of repeated oral dose; type: in vivo, C57/BL6 mice; details: C57/BL6, mouse; for Kp at 14 days: liver/plasma, read-out: Liver to Plasma Ratio
[5] = tested on: middle cerebral artery occlusion (MCAO); experiment: MCAO ischemia-reperfusion model, infarct volume (TTC staining); type: in vivo, SD male rats
[6] = Plasma and brain distribution studies
Protocol: The dosing volume for intraperitoneal administration was 5 mL/kg. Following blood collection, the animals were sacrificed, and their abdominal vena-cava were cut open and whole body were perfused from heart using 10 mL normal saline. The brain samples were collected from a set of three mice at 0.08, 0.25, 0.5, 1, 2, 4, 8 and 10 h. After isolation, the brain samples were rinsed thrice in ice cold normal saline (for 5-10 s/rinse using ˜10-20 mL normal saline in disposable petri dish for each rinse) and dried on blotting paper. The brain samples were homogenized using ice-cold phosphate buffer saline (pH=7.4). The total homogenate volume was three times the tissue weight. All homogenates were stored below −70° C. until bioanalysis. […] Non-Compartmental-Analysis tool of Phoenix WinNonlin® (Version 8.0) was used to assess the pharmacokinetic parameters.

[7] = Solubility test (PBS, HPLC-UV); type: physicochemical; details: kinetic from dmso stock
Protocol: Calibration standards at 1, 5, 10, 50, 100, 200 and 300 μM were prepared in DMSO from a 20 mM stock. […] The plate was covered and shook at 150 rotations per min for 90 min. At the end of 90 min, samples were filtered using MultiScreen HTS vacuum Manifold assembly and the filtrate was collected onto the acceptor plate. An aliquot (150 μL) of the filtrate from the above 96-well acceptor plate was transferred into HPLC vials and analyzed by HPLC-UV. Verapamil, ketoconazole and reserpine were used as high, medium and low soluble reference standards respectively.

[8] = tested on: Iba1+CD11b+ double positive microglia; experiment: Immunohistochemistry analysis on microglia and leukocytes markers in MCAO brains; type: in vivo, rats; details: 10 mg/kg, day 7, brain areas CA1, CPu, M1 and S1, vs MCAO or vehicle groups
Protocol: The animals were anaesthetized with isoflurane (RWD Life Science), perfused and fixed with 4% PFA (Sinopharm Chemical Reagent). The brain tissues were further soaked in 4% PFA […] at 4° C. overnight and then treated with a gradient of sucrose solutions (20-30%, Sinopharm Chemical Reagent) before being embedded with OCT (Leica) and frozen at −80° C. For immunofluorescence staining, the brain slices from primary somatosensory cortex (S1), primary motor cortex (M1), field CA1 of hippocampus (CA1) and caudate putamen (striatum, CPu) were heated for 30 min and then washed with 0.01 M PBS (pH=7.2-7.4, 5 min×3). After washing, the sections were blocked with 0.3% TritonX-100 (Solarbio) in 10% sheep serum (Solarbio) at RT for 1 h. Following removal of the blocking solution, the brain sections were incubated with primary antibodies Iba1 (Proteintech, Cat.10904-1-AP) and CD11b (Thermo Fisher, Cat. MA5-17857) overnight at 4° C. Following 3 washes with 0.01 M PBS (5 min each), the sections were incubated with Backlight plus secondary antibody (Abcam, Cat. ab150113; Cat.ab150080) at RT for 2 h. After 3 washes, the nuclei were stained with 4′, 6-diamidino-2-phenylindole (DAPI, Beyotime Biotech, Cat. C1006). […] The number of Iba1^+CD11b^+ double positive microglia were analyzed by Image J V1.8.0. […]

[9] = male, C57BL/6, mouse, brain, ip, 50 mg/kg
[10] = male, C57BL/6, mouse, plasma, ip, 50 mg/kg

T1 sequence (Q9UGI6 whole entry): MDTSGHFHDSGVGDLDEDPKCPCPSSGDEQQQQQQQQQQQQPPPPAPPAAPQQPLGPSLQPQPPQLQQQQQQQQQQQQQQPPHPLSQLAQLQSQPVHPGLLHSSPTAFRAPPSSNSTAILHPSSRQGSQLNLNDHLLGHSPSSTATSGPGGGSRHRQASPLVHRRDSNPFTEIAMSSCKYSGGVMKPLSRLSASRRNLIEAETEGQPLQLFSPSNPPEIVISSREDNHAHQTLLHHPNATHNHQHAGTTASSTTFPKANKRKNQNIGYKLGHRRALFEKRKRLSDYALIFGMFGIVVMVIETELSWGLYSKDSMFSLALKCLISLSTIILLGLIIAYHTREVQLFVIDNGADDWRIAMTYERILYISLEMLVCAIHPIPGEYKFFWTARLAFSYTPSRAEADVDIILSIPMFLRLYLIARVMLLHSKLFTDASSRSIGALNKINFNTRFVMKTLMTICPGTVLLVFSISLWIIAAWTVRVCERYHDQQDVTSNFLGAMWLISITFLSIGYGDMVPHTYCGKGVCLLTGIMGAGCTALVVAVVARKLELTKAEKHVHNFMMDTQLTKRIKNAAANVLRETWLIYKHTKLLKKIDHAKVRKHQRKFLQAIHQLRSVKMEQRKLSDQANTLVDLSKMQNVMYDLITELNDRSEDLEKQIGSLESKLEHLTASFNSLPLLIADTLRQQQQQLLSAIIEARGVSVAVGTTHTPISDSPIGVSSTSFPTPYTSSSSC

COC(=O)C1=C(C)NC(C)=C(C(=O)OC)C1c1ccc(F)c(C(F)(F)F)c1 [Compound 101]
IC50 [1]: 8 µM | fraction unbound at 4.5 h, 3 μM [2]: 0.0088

COC(=O)C1=CNC=C(C(=O)OC)C1c1ccc(F)c(C(F)(F)F)c1 [Compound 103, Dimethyl 4-(4-fluoro-3-(trifluoromethyl)phenyl)-1,4-dihydropyridine-3,5-dicarboxylate]
selectivity for KCa3.1 over other channels and a panel of ~100 molecular targets [3]: > 1000 fold | Kp at 14 days ([4]; 25 mg/kg BID oral 14 days, Female mice): 85.6 | Kp at 14 days ([4]; 25 mg/kg BID oral 14 days, Male mice): 36 | Kp at 14 days ([4]; 50 mg/kg BID oral 14 days, Female mice): 31.9 | Kp at 14 days ([4]; 50 mg/kg BID oral 14 days, Male mice): 19.6 | concentration at 14 days ([4]; liver, 25 mg/kg BID oral 14 days, Female mice, read-out: Average Concentration Liver): 8420 ng/g | concentration at 14 days ([4]; liver, 25 mg/kg BID oral 14 days, Male mice, read-out: Average Concentration Liver): 10100 ng/g | concentration at 14 days ([4]; liver, 50 mg/kg BID oral 14 days, Female mice, read-out: Average Concentration Liver): 12100 ng/g | concentration at 14 days ([4]; liver, 50 mg/kg BID oral 14 days, Male mice, read-out: Average Concentration Liver): 17500 ng/g | concentration at 14 days ([4]; plasma, 25 mg/kg BID oral 14 days, Female mice, read-out: Average Concentration Plasma): 100 ng/mL | concentration at 14 days ([4]; plasma, 25 mg/kg BID oral 14 days, Male mice, read-out: Average Concentration Plasma): 297 ng/mL | concentration at 14 days ([4]; plasma, 50 mg/kg BID oral 14 days, Female mice, read-out: Average Concentration Plasma): 401 ng/mL | concentration at 14 days ([4]; plasma, 50 mg/kg BID oral 14 days, Male mice, read-out: Average Concentration Plasma): 929 ng/mL | reduction of infarct volume ([5]; 10 mg/kg intraperitoneal twice daily, 7 days, rat MCAO): ~50% | infarct volume ([5]; rat MCAO 60 min, 7 days reperfusion, vs vehicle and Edaravone 5 mg/kg): more effective than Edaravone; also recorded: effectively reduced infarct volume | AUClast ([6]; Brain, IP 50 mg/kg, mice): 88658.12 ng·h/g | Cmax [6, 9]: 26800 ng/g | MRT last [6, 9]: 2.09 h | Tmax [6, 9]: 0.25 h | half-life [6, 9]: 1.06 h | AUC(0-t) [6, 10]: 20000 ng·h/mL | Cmax [6, 10]: 8540 ng/mL | MRT last [6, 10]: 2.02 h | Tmax [6, 10]: 0.25 h | half-life [6, 10]: 1.63 h | solubility at 90 min ([7]; pH 1.5, aqueous buffer, PBS pH 1.5): 54.6 µM (≈ 19.6 µg/mL) | solubility at 90 min ([7]; pH 5, aqueous buffer, PBS pH 5.0): 58.1 µM (≈ 20.9 µg/mL) | solubility at 90 min ([7]; pH 7.4, aqueous buffer, PBS pH 7.4): ≤ 87.4 µM | number of Iba1+CD11b+ double positive activated microglia [8]: significantly reduced; also recorded: effectively reduced

Reference: patent US20230416203A1, “POTENT AND SELECTIVE INHIBITORS OF THE CALCIUM-ACTIVATED POTASSIUM CHANNEL, KCA3.1, FOR USE AS PLATFORM THERAPEUTICS” (priority 2020, published 2023)
